SMILES strings stand for the structures.

For assay [1], the target named is GSK3β (Homo sapiens, UniProt P49841). The experiment in a line: Kinase profiling in vitro, GSK3β. It is filed as biochemical. The note with it: recombinant GSK3β, 33P-ATP, 120 min. The method, then:
(§1) The kinase assays were performed with recombinant proteins. Briefly, proteins, freshly prepared substrates and ^33P-ATP (specific activity 0.01 μCi/μl final) were mixed in reaction buffer (20 mM HEPES pH 7.5, 10 mM MgCl2, 1 mM EGTA, 0.02% Brij35, 0.02 mg/ml BSA, 0.1 mM Na3VO4, 2 mM DTT) in the presence of DMSO as control or 5IN-1NH1s. The mixtures were reacted for 120 min at room temperature. Samples were transferred onto P81 ion exchange paper and filters were extensively washed with 0.75% phosphoric acid. The radioactivities were monitored. IC50 values were determined using GraphPad Prism software.

In assay [2] the target is IGF1R (Homo sapiens, UniProt P08069). Nature of the assay: Kinase profiling in vitro, IGF1R. It is filed as biochemical. The conditions noted are these: recombinant IGF1R, 33P-ATP, 120 min. As to the method:
as §1

Assay [3] addresses FLT3 (ITD) (Homo sapiens, UniProt P36888). Nature of the assay: In vitro kinase assay, recombinant FLT3 (ITD). The conditions noted are these: 33P-ATP, 120 min. It is filed as biochemical. The method, then: as §1, with “recombinant class III receptor tyrosine kinase family” for “recombinant”
as §1, with “Kinase” for “The kinase”, “FLT3, mutated FLT3-ITD and D835I mutant FLT3 kinases.” for “proteins.”, “compound (1289).” for “5IN-1NH1s.”

The target of assay [4] is JAK2 (Homo sapiens, UniProt O60674). The experiment in a line: Kinase profiling in vitro, JAK2. Format: biochemical. The note with it: recombinant JAK2, 33P-ATP, 120 min. As to the method:
as §1

Assay [5] concerns DU145 prostate cancer cells. The experiment in a line: MTS cell viability, DU145 prostate cancer cells. Format: cell-based, human. The conditions noted are these: 48 h, read-out: IC50 for 50% inhibition of viability. The method, then: (§2) MTS assays were performed for cell viability. Human cancer cells were seeded in 96-well plates (2500 cells/well for solid tumors, 5000 cells/well for blood tumors), incubated overnight at 37 C in 5% CO2, and exposed to 5IN-1NH1 or 5IN-1NH1s in a dose-dependent manner for 48 h. See FIGS. 1A-1B, 2A-2B, 3, 4A-4B, and 6A-6B. Dimethyl sulfoxide (DMSO) was used as the vehicle control. Viable cell numbers were determined by tetrazolium conversion to its formazan dye and absorbance was measured at 490 nm using an automated ELISA plate reader. Each experiment was performed in quadruplicate. IC50 values were determined using CalcuSyn software (BIOSOFT®, Cambridge GB).

In assay [6] the target is CDK2/cyclin A (Homo sapiens, UniProt P24941). The experiment in a line: Kinase profiling in vitro, CDK2/cyclin A. Format: biochemical. The conditions noted are these: recombinant CDK2/cyclin A, 33P-ATP, 120 min. The method, then:
as §1

The subject of assay [7] is SKOV3 ovarian cancer cells. The experiment in a line: MTS cell viability, SKOV3 ovarian cancer cells. It is filed as cell-based, human. The note with it: 48 h, read-out: IC50 for 50% inhibition of viability. As to the method:
as §2

Assay [8] concerns the target c-Src (Homo sapiens, UniProt P12931). The experiment in a line: Kinase profiling in vitro, c-Src. The conditions noted are these: recombinant c-Src, 33P-ATP, 120 min. It is filed as biochemical. The method, then:
as §1

Assay [9] deals with PDGFR β (Homo sapiens, UniProt P09619). The experiment in a line: In vitro kinase assay, recombinant PDGFR β. The conditions noted are these: 33P-ATP, 120 min. Format: biochemical. As to the method: (§3) Compound (1289) inhibits activities of FMS, PDGFR α, PDGFR β and c-KIT in vitro. The kinase assays were performed with recombinant FMS, PDGFR α, PDGFR β and c-KIT proteins. Briefly, proteins, freshly prepared substrates and ^33P-ATP (specific activity 0.01 μCi/μl final) were mixed in reaction buffer (20 mM HEPES pH 7.5, 10 mM MgCl2, 1 mM EGTA, 0.02% Brij35, 0.02 mg/ml BSA, 0.1 mM Na3VO4, 2 mM DTT) in the presence of DMSO as control or compound (1289). The mixtures were reacted for 120 min at room temperature. Samples were transferred onto P81 ion exchange paper and filters were extensively washed with 0.75% phosphoric acid. The radioactivities were monitored.
as §1, with “recombinant class III receptor tyrosine kinase family” for “recombinant”

The target in assay [10] is c-KIT (Homo sapiens, UniProt P10721). Nature of the assay: In vitro kinase assay, recombinant c-KIT. Format: biochemical. The note with it: 33P-ATP, 120 min. The method, then:
as §3
as §1, with “recombinant class III receptor tyrosine kinase family” for “recombinant”

Assay [11] concerns T315I ABL1 mutant KCL22 CML cells. Nature of the assay: MTS cell viability, T315I ABL1 mutant KCL22 CML cells. It is filed as cell-based, human. The conditions noted are these: T315I ABL1 mutant KCL22 CML cells, MTS, 48 h; read-out: IC50 for 50% inhibition of viability. As to the method:
as §2
Human DU145 prostate cancer, A2058 melanoma, SKOV3 ovarian cancer and T315I ABL1 mutant KCL22 CML cells were seeded in 96-well plates (2500 cells/well for solid tumors, 5000 cells/well for blood tumors), incubated overnight at 37° C. in 5% CO2, and exposed to 5IN-6NC1, 5IN-1NH1, 5IN-6NNC6, or 5IN-6NNC7 in a dose-dependent manner for 48 h. Dimethyl sulfoxide (DMSO) was used as the vehicle control. Viable cell numbers were determined by tetrazolium conversion to its formazan dye and absorbance was measured at 490 nm using an automated ELISA plate reader. Each experiment was performed in quadruplicate. IC50 values were determined using CalcuSyn software.

The subject of assay [12] is A549 lung cancer cells. Nature of the assay: MTS cell viability, A549 lung cancer cells. Format: cell-based, human. The note with it: 48 h, read-out: IC50 for 50% inhibition of viability. As to the method: as §2

IGF1R, sequence (P08069 31-1367, species assumed): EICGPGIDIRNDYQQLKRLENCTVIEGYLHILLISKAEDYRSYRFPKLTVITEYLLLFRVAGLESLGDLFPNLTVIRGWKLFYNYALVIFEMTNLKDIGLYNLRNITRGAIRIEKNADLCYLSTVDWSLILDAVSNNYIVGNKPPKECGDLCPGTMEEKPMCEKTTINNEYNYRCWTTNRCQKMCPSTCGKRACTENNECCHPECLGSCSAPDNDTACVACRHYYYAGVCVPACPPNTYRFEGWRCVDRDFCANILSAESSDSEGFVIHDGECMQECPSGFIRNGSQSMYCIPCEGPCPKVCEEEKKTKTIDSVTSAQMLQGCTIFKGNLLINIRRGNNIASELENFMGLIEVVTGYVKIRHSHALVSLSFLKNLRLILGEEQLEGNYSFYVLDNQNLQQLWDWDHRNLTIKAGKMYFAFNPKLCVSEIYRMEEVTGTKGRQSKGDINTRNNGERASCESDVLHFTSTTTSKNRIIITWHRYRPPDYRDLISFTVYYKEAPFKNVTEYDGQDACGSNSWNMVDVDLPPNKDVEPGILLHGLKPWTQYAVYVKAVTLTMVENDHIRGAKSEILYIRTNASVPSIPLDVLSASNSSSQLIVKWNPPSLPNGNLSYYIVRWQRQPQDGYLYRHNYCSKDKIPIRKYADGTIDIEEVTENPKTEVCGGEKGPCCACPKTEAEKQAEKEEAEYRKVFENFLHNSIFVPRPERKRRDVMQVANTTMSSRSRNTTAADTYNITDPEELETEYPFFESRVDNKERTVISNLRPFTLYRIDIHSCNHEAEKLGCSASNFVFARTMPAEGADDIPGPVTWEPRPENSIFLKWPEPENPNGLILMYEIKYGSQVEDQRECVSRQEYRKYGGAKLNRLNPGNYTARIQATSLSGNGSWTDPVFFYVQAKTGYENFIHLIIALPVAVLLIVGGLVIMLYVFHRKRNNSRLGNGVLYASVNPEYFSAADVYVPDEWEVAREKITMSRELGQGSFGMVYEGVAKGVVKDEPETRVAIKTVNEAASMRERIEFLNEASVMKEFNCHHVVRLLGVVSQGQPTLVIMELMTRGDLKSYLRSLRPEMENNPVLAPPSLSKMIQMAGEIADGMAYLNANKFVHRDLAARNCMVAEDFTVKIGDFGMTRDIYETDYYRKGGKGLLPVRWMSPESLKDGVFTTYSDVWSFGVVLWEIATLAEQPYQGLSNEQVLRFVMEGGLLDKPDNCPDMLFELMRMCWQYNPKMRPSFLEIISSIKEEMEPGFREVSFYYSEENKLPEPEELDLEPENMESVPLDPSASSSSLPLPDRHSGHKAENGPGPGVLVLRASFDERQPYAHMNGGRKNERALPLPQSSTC
PDGFR β, sequence (P09619 33-1106, species assumed): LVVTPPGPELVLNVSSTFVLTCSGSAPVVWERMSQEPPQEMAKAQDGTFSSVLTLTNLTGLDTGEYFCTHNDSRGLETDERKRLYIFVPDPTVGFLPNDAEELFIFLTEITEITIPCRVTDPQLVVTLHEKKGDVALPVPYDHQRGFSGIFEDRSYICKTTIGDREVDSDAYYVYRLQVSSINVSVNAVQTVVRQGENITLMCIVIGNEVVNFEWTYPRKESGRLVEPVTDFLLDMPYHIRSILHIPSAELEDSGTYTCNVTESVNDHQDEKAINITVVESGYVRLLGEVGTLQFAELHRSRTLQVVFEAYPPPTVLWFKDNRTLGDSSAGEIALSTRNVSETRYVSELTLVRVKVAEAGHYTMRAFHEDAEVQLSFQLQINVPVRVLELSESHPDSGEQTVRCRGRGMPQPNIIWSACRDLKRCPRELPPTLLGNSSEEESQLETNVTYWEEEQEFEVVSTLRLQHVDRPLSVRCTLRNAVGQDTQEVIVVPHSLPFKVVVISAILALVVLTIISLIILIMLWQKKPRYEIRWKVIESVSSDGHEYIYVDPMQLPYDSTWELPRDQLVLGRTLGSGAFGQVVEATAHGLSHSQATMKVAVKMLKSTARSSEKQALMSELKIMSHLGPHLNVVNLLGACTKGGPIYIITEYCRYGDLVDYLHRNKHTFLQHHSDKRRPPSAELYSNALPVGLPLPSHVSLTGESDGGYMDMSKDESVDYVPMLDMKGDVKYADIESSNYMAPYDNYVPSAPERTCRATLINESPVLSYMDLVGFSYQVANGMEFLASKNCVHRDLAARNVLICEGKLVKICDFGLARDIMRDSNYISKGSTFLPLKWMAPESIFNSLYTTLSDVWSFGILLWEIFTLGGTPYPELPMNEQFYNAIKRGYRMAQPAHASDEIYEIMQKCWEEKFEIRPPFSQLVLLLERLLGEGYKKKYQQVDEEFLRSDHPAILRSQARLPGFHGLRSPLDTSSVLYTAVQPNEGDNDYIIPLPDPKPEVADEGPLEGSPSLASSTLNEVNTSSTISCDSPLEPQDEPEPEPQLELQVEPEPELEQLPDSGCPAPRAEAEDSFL
GSK3β, sequence (P49841 whole entry, species assumed): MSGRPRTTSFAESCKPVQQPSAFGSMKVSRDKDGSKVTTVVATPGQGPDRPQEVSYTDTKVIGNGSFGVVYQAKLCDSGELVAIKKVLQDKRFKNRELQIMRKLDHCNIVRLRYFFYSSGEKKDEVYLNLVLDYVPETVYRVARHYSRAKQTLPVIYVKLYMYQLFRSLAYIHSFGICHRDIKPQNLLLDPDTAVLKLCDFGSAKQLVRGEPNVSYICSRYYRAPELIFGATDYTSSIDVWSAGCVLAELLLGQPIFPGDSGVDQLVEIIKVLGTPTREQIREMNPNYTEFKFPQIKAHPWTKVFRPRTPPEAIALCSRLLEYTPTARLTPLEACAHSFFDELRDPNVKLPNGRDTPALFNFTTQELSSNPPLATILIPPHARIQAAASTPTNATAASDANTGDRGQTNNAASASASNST
c-KIT, sequence (P10721 26-976): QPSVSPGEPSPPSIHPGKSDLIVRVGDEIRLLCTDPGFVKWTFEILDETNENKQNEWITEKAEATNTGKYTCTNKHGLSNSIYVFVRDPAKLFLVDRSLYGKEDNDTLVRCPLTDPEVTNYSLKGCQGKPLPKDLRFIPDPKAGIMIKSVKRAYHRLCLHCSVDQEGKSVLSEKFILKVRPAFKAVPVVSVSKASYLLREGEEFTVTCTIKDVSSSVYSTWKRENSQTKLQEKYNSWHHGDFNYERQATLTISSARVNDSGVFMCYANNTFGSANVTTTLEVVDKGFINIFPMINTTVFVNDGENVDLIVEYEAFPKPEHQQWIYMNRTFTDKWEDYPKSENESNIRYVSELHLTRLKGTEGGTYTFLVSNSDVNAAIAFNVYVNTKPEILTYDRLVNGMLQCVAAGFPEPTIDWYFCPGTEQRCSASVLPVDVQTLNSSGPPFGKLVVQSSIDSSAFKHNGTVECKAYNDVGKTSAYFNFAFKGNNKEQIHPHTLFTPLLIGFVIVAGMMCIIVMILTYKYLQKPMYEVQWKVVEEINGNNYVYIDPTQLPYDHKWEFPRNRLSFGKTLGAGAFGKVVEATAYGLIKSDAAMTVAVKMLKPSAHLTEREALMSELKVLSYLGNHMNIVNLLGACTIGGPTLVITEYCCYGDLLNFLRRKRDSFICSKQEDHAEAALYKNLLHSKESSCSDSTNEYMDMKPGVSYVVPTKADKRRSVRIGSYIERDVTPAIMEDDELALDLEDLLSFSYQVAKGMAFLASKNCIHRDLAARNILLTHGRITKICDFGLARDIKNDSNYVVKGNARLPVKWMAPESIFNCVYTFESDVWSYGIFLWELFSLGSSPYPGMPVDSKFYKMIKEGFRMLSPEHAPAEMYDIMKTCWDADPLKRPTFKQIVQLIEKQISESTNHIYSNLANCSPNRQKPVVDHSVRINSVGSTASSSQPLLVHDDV
JAK2, sequence (O60674 whole entry, species assumed): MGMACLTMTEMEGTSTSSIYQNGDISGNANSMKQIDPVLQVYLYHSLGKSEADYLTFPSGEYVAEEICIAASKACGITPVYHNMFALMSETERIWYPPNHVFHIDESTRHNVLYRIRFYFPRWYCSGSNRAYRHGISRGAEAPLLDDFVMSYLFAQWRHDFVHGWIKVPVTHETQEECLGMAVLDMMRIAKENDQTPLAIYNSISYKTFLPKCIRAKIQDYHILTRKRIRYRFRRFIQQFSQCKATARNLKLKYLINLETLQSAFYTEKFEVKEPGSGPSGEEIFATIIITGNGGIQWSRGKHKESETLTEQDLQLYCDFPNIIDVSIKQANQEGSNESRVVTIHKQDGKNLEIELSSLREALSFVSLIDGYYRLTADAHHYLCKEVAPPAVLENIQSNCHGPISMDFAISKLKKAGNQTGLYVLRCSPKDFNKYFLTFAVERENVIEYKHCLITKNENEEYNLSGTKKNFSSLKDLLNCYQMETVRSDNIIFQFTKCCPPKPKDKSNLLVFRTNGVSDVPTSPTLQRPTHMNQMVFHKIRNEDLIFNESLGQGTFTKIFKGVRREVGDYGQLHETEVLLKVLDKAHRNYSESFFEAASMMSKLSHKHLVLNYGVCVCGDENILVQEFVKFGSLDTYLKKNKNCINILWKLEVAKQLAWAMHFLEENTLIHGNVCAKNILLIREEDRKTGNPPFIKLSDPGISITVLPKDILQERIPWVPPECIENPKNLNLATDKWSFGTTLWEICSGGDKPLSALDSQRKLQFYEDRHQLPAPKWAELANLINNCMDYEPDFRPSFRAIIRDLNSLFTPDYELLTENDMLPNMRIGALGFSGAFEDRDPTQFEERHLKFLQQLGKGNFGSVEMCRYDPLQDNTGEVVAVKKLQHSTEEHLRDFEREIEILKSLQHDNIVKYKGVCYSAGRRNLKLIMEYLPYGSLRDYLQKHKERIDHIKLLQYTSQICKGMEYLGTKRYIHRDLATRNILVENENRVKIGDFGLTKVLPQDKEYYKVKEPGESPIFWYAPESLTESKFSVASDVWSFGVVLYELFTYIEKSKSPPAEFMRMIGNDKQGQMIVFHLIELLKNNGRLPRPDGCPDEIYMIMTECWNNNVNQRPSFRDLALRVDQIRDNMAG

In the case of `CNCCO/N=C1/C(=C2/C(=O)Nc3ccc(Br)cc32)Nc2ccccc21` [5IN-1NH1s], the IC50 – broadly, the concentration that gives 50% inhibition – was 1.18 nM in assay [1]; 31.8 nM in assay [2]; 1.09 nM in assay [3]; 169 nM in [4]; 44.7 nM in assay [5]; 1.08 nM in assay [6]. Further, the 50% inhibitory concentration (IC50) is 169 nM in assay [7]; 13.8 nM in assay [8]; 9.1 nM in assay [9]; 321 nM in assay [10]; 52.7 nM in assay [11]; 46.1 nM in [12].

For the origin of these results see patent publication US11964941B2, “5-Bromo-indirubins” (City of Hope, priority 2014, dated 2024).
